pEC50: −log10 of the molar value. Where two headings read alike, the source gives them in different places.
Tests used:
[1] = target: T1, LCMV vRNP (Lymphocytic choriomeningitis virus, UniProt P09992+P14240); assay type: cell-based
T1 construct: expressed in transfected cells; host or cells: HEK293T

[2] = target: LASV vRNP (UniProt P13699+Q6GWS6); assay type: cell-based
[3] = tested on: Vero cells
[4] = tested on: rLCMV/GFP-P2A-NP; assay: organism not typed; assay type: cell-based, LCMV; conditions: for pEC50: Hec50, read-out: EC50, LCMV multiplication (GFP expression)
[5] = in vitro; conditions: African green monkey, CC50 (CellTiter 96 Aqueous One)
[6] = tested on: rLCMV/GFP-P2A-NP; set-up: species or system LCMV
[7] = target: T2, LCMV GPC (GP2-mediated fusion) (Lymphocytic choriomeningitis virus, UniProt P09991); assay type: cell-based
T2 construct: expressed in transfected cells; host or cells: HEK293T
T2 sequence (P09991 266-498 limits assumed): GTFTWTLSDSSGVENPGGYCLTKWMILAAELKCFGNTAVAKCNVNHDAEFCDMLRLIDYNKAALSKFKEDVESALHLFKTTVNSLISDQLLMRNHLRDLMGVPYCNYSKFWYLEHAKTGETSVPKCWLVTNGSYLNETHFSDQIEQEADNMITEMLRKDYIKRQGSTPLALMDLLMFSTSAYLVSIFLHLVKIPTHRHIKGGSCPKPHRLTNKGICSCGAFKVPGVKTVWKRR
T2 sequence (P09991 59-265 limits assumed): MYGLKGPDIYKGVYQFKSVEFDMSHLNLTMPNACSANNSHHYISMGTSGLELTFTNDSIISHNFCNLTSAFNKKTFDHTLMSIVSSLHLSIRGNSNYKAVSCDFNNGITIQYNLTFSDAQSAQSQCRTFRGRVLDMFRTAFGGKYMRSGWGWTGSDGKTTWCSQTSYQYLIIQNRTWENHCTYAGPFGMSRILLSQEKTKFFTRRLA
T2 sequence (P09991 2-58 limits assumed): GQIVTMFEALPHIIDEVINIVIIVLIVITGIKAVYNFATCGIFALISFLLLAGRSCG

[8] = tested on: rLCMV/GFP-P2A-NP; assay type: cell-based, LCMV
[9] = tested on: r3JUNVCandid GFP/GFP (r3Can-GFP); assay type: cell-based, JUNV
[10] = cited from earlier work
[11] = in vitro; conditions: human
[12] = tested on: mammarenavirus; conditions: cited from earlier work
[13] = tested on: rLCMV/GFP-P2A-NP; assay: organism not typed; assay type: cell-based, LCMV; conditions: for pEC50: A549, read-out: EC50, LCMV multiplication (GFP expression)
[14] = tested on: A549 cells

T1 sequence (P09992 whole entry): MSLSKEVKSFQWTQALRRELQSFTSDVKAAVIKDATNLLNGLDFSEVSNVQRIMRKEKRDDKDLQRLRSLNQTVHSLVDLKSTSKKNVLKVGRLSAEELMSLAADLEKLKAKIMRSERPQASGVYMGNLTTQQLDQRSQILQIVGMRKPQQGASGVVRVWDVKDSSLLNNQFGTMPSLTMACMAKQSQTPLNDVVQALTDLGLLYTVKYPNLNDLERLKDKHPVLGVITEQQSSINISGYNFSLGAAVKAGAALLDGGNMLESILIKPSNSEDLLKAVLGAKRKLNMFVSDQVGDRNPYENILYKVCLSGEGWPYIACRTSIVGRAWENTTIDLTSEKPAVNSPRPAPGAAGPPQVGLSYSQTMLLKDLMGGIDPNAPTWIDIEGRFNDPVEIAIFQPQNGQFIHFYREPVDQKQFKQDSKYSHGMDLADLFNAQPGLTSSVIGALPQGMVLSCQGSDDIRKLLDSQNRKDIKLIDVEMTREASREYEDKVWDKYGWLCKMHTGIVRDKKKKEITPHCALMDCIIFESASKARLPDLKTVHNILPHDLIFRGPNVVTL
T1 sequence (P14240 whole entry): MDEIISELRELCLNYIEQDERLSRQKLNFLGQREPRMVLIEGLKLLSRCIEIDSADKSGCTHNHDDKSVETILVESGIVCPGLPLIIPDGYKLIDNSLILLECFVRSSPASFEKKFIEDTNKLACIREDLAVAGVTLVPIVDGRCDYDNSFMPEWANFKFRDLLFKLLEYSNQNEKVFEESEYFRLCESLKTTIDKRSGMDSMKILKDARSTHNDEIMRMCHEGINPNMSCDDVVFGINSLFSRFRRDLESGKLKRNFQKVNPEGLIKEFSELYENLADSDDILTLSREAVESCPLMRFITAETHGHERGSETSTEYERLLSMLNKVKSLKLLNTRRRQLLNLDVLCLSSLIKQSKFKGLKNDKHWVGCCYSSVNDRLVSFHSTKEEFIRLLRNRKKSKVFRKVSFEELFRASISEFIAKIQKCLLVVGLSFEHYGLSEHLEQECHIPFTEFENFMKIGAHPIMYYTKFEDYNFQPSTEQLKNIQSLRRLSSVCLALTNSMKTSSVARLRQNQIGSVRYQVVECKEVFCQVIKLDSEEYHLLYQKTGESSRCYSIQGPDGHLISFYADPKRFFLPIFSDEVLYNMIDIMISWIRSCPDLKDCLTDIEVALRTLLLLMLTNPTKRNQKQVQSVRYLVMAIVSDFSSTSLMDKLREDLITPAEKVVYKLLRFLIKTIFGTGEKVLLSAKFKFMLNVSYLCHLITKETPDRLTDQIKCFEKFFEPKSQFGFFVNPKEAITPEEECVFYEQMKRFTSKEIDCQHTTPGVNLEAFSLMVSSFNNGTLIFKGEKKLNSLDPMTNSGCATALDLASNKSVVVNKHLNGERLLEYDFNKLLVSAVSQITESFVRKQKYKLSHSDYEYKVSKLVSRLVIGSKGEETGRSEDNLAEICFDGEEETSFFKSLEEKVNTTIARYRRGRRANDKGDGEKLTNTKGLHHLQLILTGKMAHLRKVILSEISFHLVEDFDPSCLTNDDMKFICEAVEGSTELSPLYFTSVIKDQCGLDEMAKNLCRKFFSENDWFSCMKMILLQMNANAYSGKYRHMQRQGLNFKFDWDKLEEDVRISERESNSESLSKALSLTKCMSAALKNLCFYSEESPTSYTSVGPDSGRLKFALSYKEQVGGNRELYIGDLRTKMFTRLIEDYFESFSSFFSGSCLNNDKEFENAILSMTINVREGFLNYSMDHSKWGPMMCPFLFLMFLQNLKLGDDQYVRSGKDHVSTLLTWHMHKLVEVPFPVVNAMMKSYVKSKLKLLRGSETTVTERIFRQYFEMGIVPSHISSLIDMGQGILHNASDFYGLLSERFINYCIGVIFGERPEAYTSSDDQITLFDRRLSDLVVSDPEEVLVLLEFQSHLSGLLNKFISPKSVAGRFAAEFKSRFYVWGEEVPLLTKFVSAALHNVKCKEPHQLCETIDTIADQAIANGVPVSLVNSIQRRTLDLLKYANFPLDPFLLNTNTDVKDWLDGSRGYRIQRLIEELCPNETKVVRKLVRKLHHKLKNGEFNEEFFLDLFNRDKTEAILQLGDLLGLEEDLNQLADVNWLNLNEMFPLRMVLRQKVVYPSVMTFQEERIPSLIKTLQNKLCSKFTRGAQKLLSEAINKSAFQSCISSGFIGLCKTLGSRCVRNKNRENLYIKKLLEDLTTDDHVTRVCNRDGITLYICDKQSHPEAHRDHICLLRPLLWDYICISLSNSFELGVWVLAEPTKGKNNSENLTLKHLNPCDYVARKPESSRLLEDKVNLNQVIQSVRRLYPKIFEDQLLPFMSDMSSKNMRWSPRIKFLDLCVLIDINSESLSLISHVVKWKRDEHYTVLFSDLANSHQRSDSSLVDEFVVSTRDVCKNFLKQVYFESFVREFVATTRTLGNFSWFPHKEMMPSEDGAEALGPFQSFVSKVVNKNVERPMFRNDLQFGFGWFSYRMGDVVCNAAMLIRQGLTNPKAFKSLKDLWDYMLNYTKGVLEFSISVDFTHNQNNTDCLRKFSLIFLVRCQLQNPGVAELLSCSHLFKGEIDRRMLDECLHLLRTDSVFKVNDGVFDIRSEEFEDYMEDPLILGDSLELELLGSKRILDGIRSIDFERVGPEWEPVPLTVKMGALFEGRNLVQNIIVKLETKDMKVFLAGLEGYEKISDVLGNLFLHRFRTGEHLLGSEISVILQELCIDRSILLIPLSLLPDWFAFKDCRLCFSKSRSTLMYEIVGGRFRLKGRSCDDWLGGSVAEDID

SMILES | Inhibition of LCMV MG activity (in words) [1] | Reduction in LASV MG-directed ZsGreen expression levels vs vehicle control [2] | Toxicity on Vero cells (in words) [3] | Inhibitory activity on LCMV multiplication (in words) [4] | pEC50 [4] | CC50 [5] [µM] | CC50 [11] [µM] | Anti-LCMV activity of calcium channel blockers (in words) [13] | also measured
CN1CC(=O)N2[C@H](c3ccc4c(c3)OCO4)c3[nH]c4ccccc4c3C[C@@H]2C1=O [TAD, tadalafil] | minimal inhibitory activities | ~ 12% | minimal toxicity | very poor inhibitory activity | < 4.00 | > 100 |  |  | 
OC(c1cc(C(F)(F)F)nc2c(C(F)(F)F)cccc12)C1CCCCN1 (stereo not drawn) [MEF, mefloquine] | minimal inhibitory activities | 5% |  |  | 4.81 | 29.1 |  |  | CC50 ([3]; African green monkey): 27.3 µM; selective index (SI) [4]: 1.87
Fc1ccc(C(c2ccc(F)cc2)N2CCN(C/C=C/c3ccccc3)CC2)cc1 [FLN, Flunarizine] | strongest inhibitory effect | ~ 50% |  |  |  | > 100 | 74.3 |  | Virucidal activity: effect on virion infectivity [6]: did not significantly affect virion infectivity; GP2-mediated pH-dependent fusion (syncytium formation) [7]: inhibition of GP2-mediated fusion; Levels of viral (LCMV NP) RNA determined by RT-qPCR [8]: reduced; Virus cell propagation (GFP imaging) [8]: reduced virus cell propagation; Reduction in r3Can-GFP (JUNV) virus peak titers vs VC [9]: > 1 log; Bound to plasma proteins [10]: More than 99%; Inhibition of LCMV MG vRNP-directed reporter gene (GFP) expression [1]: ~ 75%
Clc1ccc(Cn2c(CN3CCCC3)nc3ccccc32)cc1 [clemizole] |  |  |  |  |  |  |  |  | Anti-mammarenavirus activity (in words) [12]: does not exhibit anti-mammarenavirus activity
C[C@@H]1C[C@H]2[C@@H]3CCC4=CC(=O)C=C[C@]4(C)[C@@]3(F)[C@@H](O)C[C@]2(C)[C@@]1(O)C(=O)CO [DEX, dexamethasone] | minimal inhibitory activities | ~ 28% | minimal toxicity | very poor inhibitory activity |  | 55.7 |  |  | 
NCC1(CC(=O)O)CCCCC1 [Gabapentin, gabapentin] |  |  |  |  |  |  | > 100 | did not exhibit significant anti-LCMV activity | EC50, LCMV multiplication (GFP expression) [13]: >Flat
COC(=O)C1=C(C)NC(C)=C(C(=O)OC)C1c1ccccc1[N+](=O)[O-] [Nifidipine, nifedipine] |  |  |  |  |  |  |  | did not exhibit significant anti-LCMV activity | pEC50 [13]: < 4.00
C=C1CC[C@H](O)C/C1=C/C=C1\CCC[C@]2(C)[C@@H]([C@H](C)/C=C/[C@H](C)C(C)C)CC[C@@H]12 [Vit D, ergocalciferol] | minimal inhibitory activities | ~ 18% | minimal toxicity | very poor inhibitory activity | < 4.00 | > 100 |  |  | 
[Cl][Ni][Cl] [Nickel Chloride, nickel chloride] |  |  |  |  |  |  |  | did not exhibit significant anti-LCMV activity | CC50 [14]: > 100 µM
COc1ccc(CCN(C)CCCC(C#N)(c2ccc(OC)c(OC)c2)C(C)C)cc1OC (stereo not drawn) [Verapamil, verapamil] |  |  |  |  |  |  | > 100 | did not exhibit significant anti-LCMV activity | pEC50 [13]: < 4.00
